In patent publication US9617311B2, “Use of PEDF-derived polypeptides for promoting stem cells proliferation and wound healing” (Mackay Memorial Hospital, priority 2011, dated 2017):

Experiments:
Lgr6-positive HFSCs = test: Distribution of Lgr6-positive HFSCs at HE tissue at day 4 post skin wounding, immunohistochemistry; type: in vivo, C57L/B6 mice; details: wounds treated for 4 days
Source text: FIGS. 10A and 10B illustrate histological analysis of the distribution of HFSCs at day 4 post-skin wounding. FIG. 10A provides photographs in which specimens were immunehistologically stained with Lgr6 to observe HFSC-derived cells at HE tissue and counterstained with hematoxylin to observe nuclei. Original magnification, ×400. FIG. 10B presents photographs in which sections of 20-mer ointment-treated wound were stained with BrdU- and Lgr6-specific antibodies. Lgr6 is expressed in the cell nucleus as confirmed by Hoechst 33258 counterstaining.
To perform full-thickness skin excision, 8- to 10-week-old C57L/B6 mice were respectively anesthetized by an intraperitoneal injection of a mixture of zoletil (6 mg/kg) and xylazine (3 mg/kg). Two full-thickness skin excisional wounds, 4 mm in diameter were made on either side of the dorsal midline using Sklar Tru-Punch disposable biopsy punch (Sklar, West Chester, Pa., USA). In each treatment group (n=6), the skin wound was treated with 25 μl skin ointment (containing 50 μM synthetic peptide and 0.006 μl DMSO vehicle) once daily after the skin scraping. In the control group (n=6), skin wound was treated with 25 μl of skin ointment with equal concentration of DMSO. Each gram of the above skin ointment contains 5 mg neomycin sulfate and 12.5 mg Bacitracin Zinc. Wounds were left uncovered and harvested 4 and 7 days after injury. […]

LSCs in the limbus = test: In vivo LSC proliferation in limbus 24 hours after corneal wounding, BrdU/ΔNp63α double-immunostaining; design: species or system C57BL/6 mice; details: peptide eye ointment, control 15.0±7.6%
Description: De-paraffinized tissue sections or 4% paraformaldehyde-fixed LSCs were blocked with 10% goat serum and 5% BSA in PBST (PBS containing 0.1% Tween-20) for 1 hour. Staining was done using primary antibodies against ΔNp63α (1:150 dilution), BrdU (1:250 dilution), and keratin-3 (1:250 dilution) at 37° C. for 2 hours, followed by incubation with the appropriate rhodamine- or FITC-conjugated donkey IgG (1:500 dilution) for 1 hour at RT. Nuclei were identified by counterstaining with Hoechst 33258 for 7 minutes. Images were captured using a Zeiss epifluorescence microscope with a CCD camera and photographs were taken by using the Axiovert software.
2×10^5 limbal cells (the 1st passage) were seeded at a slide coated with FNC COATING MIX® solution (Athena Enzyme Systems, Baltimore, Md.) and incubated with a culture medium for one day. BrdU (final, 10 μM) was added to the culture for 2 hours. […] DNA synthesis was assessed by BrdU labeling with anti-BrdU antibodies. […]
Each synthetic peptide (the 39-mer, 34-mer, 29-mer, 25-mer, 20-mer, 18-mer, Mo 29-mer or Mo 20-mer) was reconstituted in DMSO as stock (5 mM) and mixed with TOBREX® eye ointment (Alcon; containing 0.3% Tobramycin and 0.5% Chlorobutanol) to a concentration 50 μM. […] Wound size was determined by staining with topical fluorescein (Fluor-I-Strip, Ayerst Laboratories, Philadelphia, Pa.) and photographed with a digital camera. […]

Sequence	Lgr6-positive cells at HE tissue versus control wound (Lgr6-positive HFSCs)	levels of BrdU- and ΔNp63α-positive cells in the limbus (LSCs in the limbus) [%]
SLGAEQRTESIIHRALYYDL [20-mer, synthetic peptide identical to residues 11-30 of the 39-mer]	markedly increased	42.4±4.3
SLGAEQRTESIIHRALYYDLISSPDIHGT [29-mer, short synthetic PEDF peptide derived from the 39-mer]	–	43.2±4.6
